Experiments:
Assay type in all cases: functional
[1] = target: T1, Calcium-dependent protein kinase 4 (Plasmodium falciparum (isolate 3D7), UniProt Q8IBS5); assay: MMV: CDPK4 Protein kinase inhibition assay using recombinant PfCDPK4, syntide2 peptide substrate, ATP and KinaseGlo to measure % inhibition at 1 uM MMV box compound.
T1 sequence (Q8IBS5 whole entry): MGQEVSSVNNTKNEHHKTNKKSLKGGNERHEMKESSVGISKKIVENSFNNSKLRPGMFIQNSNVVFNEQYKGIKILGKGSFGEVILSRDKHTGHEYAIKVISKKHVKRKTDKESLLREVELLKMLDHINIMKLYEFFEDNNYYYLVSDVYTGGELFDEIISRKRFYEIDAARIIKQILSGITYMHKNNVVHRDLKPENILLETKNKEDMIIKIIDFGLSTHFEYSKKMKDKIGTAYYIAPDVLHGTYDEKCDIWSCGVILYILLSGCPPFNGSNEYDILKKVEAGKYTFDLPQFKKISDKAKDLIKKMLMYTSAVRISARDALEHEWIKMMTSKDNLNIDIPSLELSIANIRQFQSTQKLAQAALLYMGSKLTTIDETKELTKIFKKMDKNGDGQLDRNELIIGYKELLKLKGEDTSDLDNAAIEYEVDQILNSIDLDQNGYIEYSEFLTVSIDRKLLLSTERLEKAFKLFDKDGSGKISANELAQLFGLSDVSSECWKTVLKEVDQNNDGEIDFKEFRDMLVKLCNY

[2] = target: Calcium-dependent protein kinase 1 (Plasmodium falciparum, UniProt P62344); assay: MMV: CDPK1 Protein kinase inhibition assay using recombinant PfCDPK1, syntide 2 peptide substrate, ATP and KinaseGlo to measure % inhibition at 1 uM MMV box compound.
Chain of Calcium-dependent protein kinase 1 (P62344 whole entry): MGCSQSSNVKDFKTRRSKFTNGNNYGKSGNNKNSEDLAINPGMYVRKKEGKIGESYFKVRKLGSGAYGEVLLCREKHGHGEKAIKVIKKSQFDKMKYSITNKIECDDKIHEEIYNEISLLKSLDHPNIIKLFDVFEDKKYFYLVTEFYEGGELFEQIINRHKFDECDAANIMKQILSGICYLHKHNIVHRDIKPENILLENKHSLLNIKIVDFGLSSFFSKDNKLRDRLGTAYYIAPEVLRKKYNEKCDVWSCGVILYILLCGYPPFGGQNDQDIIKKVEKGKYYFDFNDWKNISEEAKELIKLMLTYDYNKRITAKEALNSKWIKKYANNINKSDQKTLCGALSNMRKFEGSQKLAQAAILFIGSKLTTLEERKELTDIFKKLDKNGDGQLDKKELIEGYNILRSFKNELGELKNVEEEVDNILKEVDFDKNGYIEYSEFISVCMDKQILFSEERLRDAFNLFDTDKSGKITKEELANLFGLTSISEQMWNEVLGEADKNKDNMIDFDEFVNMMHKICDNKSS

[3] = target: T2, Proline--tRNA ligase (Plasmodium falciparum (isolate 3D7), UniProt Q8I5R7); assay: MMV: ProRS recombinant Plasmodium falciparum Prolyl-tRNA-synthetase, assay with yeast tRNA, ATP, and proline and 3 uM MMV malaria box compound, assay read out with kinase glo as % inhibition.
T2 sequence (Q8I5R7 whole entry): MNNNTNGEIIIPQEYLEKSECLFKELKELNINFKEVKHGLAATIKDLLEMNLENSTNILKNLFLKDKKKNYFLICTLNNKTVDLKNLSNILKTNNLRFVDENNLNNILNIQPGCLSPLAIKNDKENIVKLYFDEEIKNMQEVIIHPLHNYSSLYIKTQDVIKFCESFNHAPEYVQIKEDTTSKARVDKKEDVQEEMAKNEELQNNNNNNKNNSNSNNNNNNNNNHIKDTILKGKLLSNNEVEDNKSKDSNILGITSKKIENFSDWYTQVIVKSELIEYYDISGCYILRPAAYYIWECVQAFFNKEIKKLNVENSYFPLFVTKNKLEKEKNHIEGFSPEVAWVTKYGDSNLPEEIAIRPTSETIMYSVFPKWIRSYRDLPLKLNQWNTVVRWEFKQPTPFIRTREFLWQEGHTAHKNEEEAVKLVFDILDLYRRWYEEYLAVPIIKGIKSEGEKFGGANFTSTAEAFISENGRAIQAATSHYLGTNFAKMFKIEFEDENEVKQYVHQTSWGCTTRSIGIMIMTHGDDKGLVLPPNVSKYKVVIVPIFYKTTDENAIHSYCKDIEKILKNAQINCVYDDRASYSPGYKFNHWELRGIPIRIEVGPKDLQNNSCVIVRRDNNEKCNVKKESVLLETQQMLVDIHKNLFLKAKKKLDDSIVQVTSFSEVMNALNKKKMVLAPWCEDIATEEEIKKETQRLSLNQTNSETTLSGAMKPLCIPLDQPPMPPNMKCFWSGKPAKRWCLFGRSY

[4] = target: Lysine--tRNA ligase (Plasmodium falciparum (isolate 3D7), UniProt Q8IDJ8); assay: MMV: KRS recombinant Plasmodium falciparum Lysyl-tRNA-synthetase, assay with yeast tRNA, ATP, and lysine and 3 uM MMV malaria box compound, assay read out with kinase glo as % inhibition.
Chain of Lysine--tRNA ligase (Q8IDJ8 whole entry): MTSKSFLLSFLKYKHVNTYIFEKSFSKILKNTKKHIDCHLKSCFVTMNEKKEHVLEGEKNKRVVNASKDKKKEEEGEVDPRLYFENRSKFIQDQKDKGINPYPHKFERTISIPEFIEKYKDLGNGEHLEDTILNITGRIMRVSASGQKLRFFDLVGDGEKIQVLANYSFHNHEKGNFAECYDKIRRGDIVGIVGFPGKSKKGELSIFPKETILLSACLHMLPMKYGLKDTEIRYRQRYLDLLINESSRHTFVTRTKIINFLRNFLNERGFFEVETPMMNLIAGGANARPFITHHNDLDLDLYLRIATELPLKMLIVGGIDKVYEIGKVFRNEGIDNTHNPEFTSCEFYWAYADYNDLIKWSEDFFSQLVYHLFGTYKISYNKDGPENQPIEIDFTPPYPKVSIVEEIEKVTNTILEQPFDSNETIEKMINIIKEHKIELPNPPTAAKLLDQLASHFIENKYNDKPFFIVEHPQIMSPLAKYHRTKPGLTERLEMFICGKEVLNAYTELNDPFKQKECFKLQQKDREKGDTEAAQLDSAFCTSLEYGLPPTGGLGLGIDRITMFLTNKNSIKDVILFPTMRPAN

[5] = target: T3, Cdk-related protein kinase 6 (Plasmodium falciparum, UniProt O77239); assay: Final concentrations were 1.5 uM ATP, 5 mM MnCl2, and 15 ug/ml PK6 in a buffer of 100 mM Tris-HCl (pH 7.5). 50 ug/mL MBP was provided as the substrate; 10 uM staurosporine was used as a control inhibitor. Incubation time was 3 hours and 40 minutes.The catalytic activity of each kinase was considered proportional to ATP consumed, as determined from measurements of residual [ATP] with the luciferase-based reagent Kinase-Glo (Promega) following incubation. Luminescence (proportional to residual [ATP]) was measured on the plate readers FLx800 (BioTek Instruments, Winooski, VT, USA) and MicroBeta2.
T3 sequence (O77239 whole entry): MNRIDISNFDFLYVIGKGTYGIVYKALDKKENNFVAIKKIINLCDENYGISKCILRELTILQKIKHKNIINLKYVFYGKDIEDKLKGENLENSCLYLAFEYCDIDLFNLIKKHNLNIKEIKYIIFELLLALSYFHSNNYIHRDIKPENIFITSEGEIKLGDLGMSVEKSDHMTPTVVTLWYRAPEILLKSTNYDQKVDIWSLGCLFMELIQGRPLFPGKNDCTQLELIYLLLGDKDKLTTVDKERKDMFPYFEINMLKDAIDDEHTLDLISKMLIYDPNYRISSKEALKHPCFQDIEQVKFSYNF

[6] = target: T4, Mitogen-activated protein kinase (Plasmodium falciparum, UniProt Q25917); assay: Final concentrations were 1 uM ATP, 0.5 mM DTT, 1 mM MgCl2, 0.5 mg/mL BSA, and 10 ug/ml MAP2 in a buffer of 50 mM HEPES (pH 7.0). 0.5 mg/mL histone III-S served as the substrate (13); 100 uM AMP-PNP, an ATP analog, was used as a control inhibitor. Incubation time was 4 hours.
T4 sequence (Q25917 whole entry): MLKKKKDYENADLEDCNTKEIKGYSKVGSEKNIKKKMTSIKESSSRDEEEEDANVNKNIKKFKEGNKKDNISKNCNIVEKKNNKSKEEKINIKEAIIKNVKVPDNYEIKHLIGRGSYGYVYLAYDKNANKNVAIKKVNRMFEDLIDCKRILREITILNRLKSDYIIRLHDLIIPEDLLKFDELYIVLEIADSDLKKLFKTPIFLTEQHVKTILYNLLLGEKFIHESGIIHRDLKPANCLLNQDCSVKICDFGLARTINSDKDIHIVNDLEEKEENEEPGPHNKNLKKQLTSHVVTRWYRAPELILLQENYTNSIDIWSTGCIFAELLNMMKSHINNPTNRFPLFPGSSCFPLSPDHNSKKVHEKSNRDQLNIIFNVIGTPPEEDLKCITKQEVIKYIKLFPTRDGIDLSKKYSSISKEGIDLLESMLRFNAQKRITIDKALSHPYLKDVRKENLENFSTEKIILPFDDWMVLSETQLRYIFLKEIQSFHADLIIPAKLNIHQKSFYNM

[7] = target: T5, Putative uncharacterized protein pk7 (Plasmodium falciparum, UniProt O96214); assay: Final concentrations were 1 uM ATP, 2 mM DTT, 20 mM MgCl2, 2 mM MnCl2, 0.01% BSA, and 6 ug/ml PK7, in a buffer of 20 mM Tris-HCl (pH 7.5). The enzyme itself was the only substrate present (since autophosphorylation occurs); 100 uM 1NA-PP1 was used as a control inhibitor. Incubation time was 3 hours.
T5 sequence (O96214 whole entry): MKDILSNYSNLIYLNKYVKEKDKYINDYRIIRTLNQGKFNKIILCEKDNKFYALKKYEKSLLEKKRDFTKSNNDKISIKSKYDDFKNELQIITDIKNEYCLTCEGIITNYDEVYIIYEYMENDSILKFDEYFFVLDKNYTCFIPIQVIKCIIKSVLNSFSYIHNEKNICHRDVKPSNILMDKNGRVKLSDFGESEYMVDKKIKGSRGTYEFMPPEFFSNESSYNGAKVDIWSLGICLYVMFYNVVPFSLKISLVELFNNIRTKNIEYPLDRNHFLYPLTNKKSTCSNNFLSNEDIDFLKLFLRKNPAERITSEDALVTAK

| SMILES | IC50 [1] [nM] | IC50 [2] [nM] | IC50 [3] [nM] | IC50 [4] [nM] | IC50 [5] [nM] | IC50 [6] [nM] | IC50 [7] [nM] |
| --- | --- | --- | --- | --- | --- | --- | --- |
| OC(CNCc1ccccc1)Cn1c2ccccc2c2ccccc21 (configuration not stated) | > 1000 | > 1000 | > 2500 | > 2500 | > 1000 | > 1000 | > 1000 |
| CC(NCc1ccccc1)c1cc(Cl)ccc1O (configuration not stated) | > 1000 | > 1000 | > 2500 | > 2500 | > 1000 | > 1000 | > 1000 |
| CCN(Cc1ccccc1)C1CCN(Cc2cc(Br)ccc2O)CC1 | > 1000 | > 1000 | > 2500 | > 2500 | > 1000 | > 1000 | > 1000 |
| COc1ccc(-c2cn3c(C(=O)Nc4ccccc4Cl)c(-c4ccccc4)c4c3n2CCCC4)cc1 | > 1000 | > 1000 | > 2500 | > 2500 | > 1000 | > 1000 | > 1000 |
| Cc1ccc(CN2CCC(C(=O)Nc3ccc(-c4cc5ccccc5[nH]4)cc3)CC2)o1 | > 1000 | > 1000 | > 2500 | > 2500 | > 1000 | > 1000 | > 1000 |
| CCOc1ccc2nc(C)cc(Nc3ccc(Br)cc3)c2c1 | > 1000 | > 1000 | > 2500 | > 2500 | > 1000 | > 1000 | > 1000 |
| O=C(Nc1ccc(Cl)cc1)N1CCN(c2ccc3nncn3n2)CC1 | > 1000 | > 1000 | > 2500 | > 2500 | > 1000 | > 1000 | > 1000 |
| CC(C)(C)c1ccc(O)c(CNC2CCCCC2)c1 | > 1000 | > 1000 | > 2500 | > 2500 | > 1000 | > 1000 | > 1000 |
| Cc1c(C)n(CC(O)CNC2CCCCC2C)c2ccccc12 (configuration not stated) | > 1000 | > 1000 | > 2500 | > 2500 | > 1000 | > 1000 | > 1000 |
| COc1ccc(-c2nonc2NC(=O)c2cccc(C)c2)cc1OC | > 1000 | > 1000 | > 2500 | > 2500 | > 1000 | > 1000 | > 1000 |
| O=C(NC1CCN(Cc2ccccc2)CC1)c1cc(-c2cccnc2)nc2ccc(Cl)cc12 | > 1000 | > 1000 | > 2500 | > 2500 | > 1000 | > 1000 | > 1000 |
| O=C(NNc1cc(N2CCCC2)nc(N2CCCC2)n1)c1ccccc1 | > 1000 | > 1000 | > 2500 | > 2500 | > 1000 | > 1000 | > 1000 |
| COc1ccccc1N1CCN(C(CNS(=O)(=O)c2ccc(Cl)cc2)c2cccnc2)CC1 (configuration not stated) | > 1000 | > 1000 | > 2500 | > 2500 | > 1000 | > 1000 | > 1000 |
| COc1ccc(C2c3ccc4ccccc4c3Oc3ncn(CCCN(C)C)c(=N)c32)cc1 (configuration not stated) | > 1000 | > 1000 | > 2500 | > 2500 | > 1000 | > 1000 | > 1000 |
| COc1ccc(C2C(C(=O)Nc3cccc(OC)c3)c3ccccc3C(=O)N2C2CCCCC2)cc1 (configuration not stated) | > 1000 | > 1000 | > 2500 | > 2500 | > 1000 | > 1000 | > 1000 |
| Cc1cccc(Nc2nc(N)c3ccccc3n2)c1 | > 1000 | > 1000 | > 2500 | > 2500 | > 1000 | > 1000 | > 1000 |
| C=CCc1c(C)nc2ccccc2c1O | > 1000 | > 1000 | > 2500 | > 2500 | > 1000 | > 1000 | > 1000 |
| O=C(NC1CCCCC1)C(c1cccs1)N(CCc1ccccc1)C(=O)c1ccco1 (configuration not stated) | > 1000 | > 1000 | > 2500 | > 2500 | > 1000 | > 1000 | > 1000 |
| COc1ccc(Nc2cc(C)nc(NCc3ccccc3)n2)cc1 | > 1000 | > 1000 | > 2500 | > 2500 | > 1000 | > 1000 | > 1000 |
| O=C(CCc1ccccc1)c1ccccc1OCC(O)CN1CCCCC1 (configuration not stated) | > 1000 | > 1000 | > 2500 | > 2500 | > 1000 | > 1000 | > 1000 |
| CCCn1c(=N)c(C(=O)NC2CCCCC2)cc2c(=O)n3cccc(C)c3nc21 | > 1000 | > 1000 | > 2500 | > 2500 | > 1000 | > 1000 | > 1000 |
